The text below walks through data of PMC8230956, “Inhibition of the Human Hsc70 System by Small Ligands as a Potential Anticancer Approach” (Cancers, 2021).

For one series, the system named is MeWo cells. The series is described as follows: Cell viability assay (XTT or Presto Blue), MeWo. Type of series: cell-based, human. The settings on record: increasing concentrations, different incubation times. The text has this: (§1) Cells grew in Dulbecco’s Modified Eagle Medium (DMEM) high glucose (Sigma-Aldrich) supplemented with heat-inactivated 10% fetal bovine serum (FBS) (HyClone™, GE Healthcare, IL, USA). […] Primary human melanocytes (human epidermal melanocytes, neonatal, light pigmented, HEMn-LP) were purchased from Invitrogen (Waltham, MA, USA, C-002-5C).
(§2) Two colorimetric assays were used to study the cytotoxic effects of the selected compounds: the XTT Cell Proliferation Kit II (Roche) and Presto Blue™ Cell Viability Reagent (Invitrogen). Exponentially growing cell lines seeded at 20,000 cells/well in 96-well flat bottom plates (Sarstedt) were incubated overnight in 150 µL of the corresponding growth medium. The following day, the medium was replaced by fresh medium (150 µL) containing 1% FBS (except for melanocytes) and 0.9% DMSO in the presence or absence of different concentrations of compounds. A2058 and MeWo cells were treated with increasing compound concentrations for cell viability assays. […] Cell viability in plates treated with XTT was determined by reading the absorbance at 490 nm in a Synergy HTX plate reader (BioTek). […] In both cases, the absorbance of the medium was subtracted from cell-containing wells. Control values (without compounds but with 0.9% DMSO) were taken as 100% viability.
A general note: Tetrazolium assays rely on reduction of a dye to a coloured formazan, in cell work by metabolically active cells.

For series [1], the system named is melanocytes (HEMn-LP non-malignant skin cells). The series is described as follows: Cell viability assay (XTT or Presto Blue), primary melanocytes. Type of series: cell-based, human. The settings on record: 20 µM, up to 12 h.
Description: as §1, §2

The target in another series is T1, Hsc70 + DnaJB1 (Homo sapiens, UniProt P11142).
T1 construct: His6-SUMO (N, cleaved yes); made in house; host or cells: E. coli BL21 Rosetta
The series is described as follows: Reactivation of G6PDH aggregates by the binary chaperone mixture. The series is classed as biochemical. The settings on record: 2 µM Hsc70, 0.5 µM DnaJB1, 0.4 µM G6PDH aggregates; means ± SD of three experiments. As to the method: (§3) Subsequently, aggregates were stabilized for 30 min at 30 °C. The properties of these aggregates have been previously reported, and typically show a hydrodynamic radius of approximately 500–600 nm. Aggregates (0.4 µM final concentration) were added to samples containing 2 µM Hsc70 and 0.5 µM DnaJB1 in the absence or presence of 0.4 µM Apg2. […] A preincubation of the samples with compounds for 30 min at 30 °C was done prior to starting the reaction. The reaction was started with the addition of 2 mM ATP and the ATP-regeneration system (3 mM PEP and 20 ng/mL PK). Final sample volume was 100 µL. Reactivation was monitored at 30 °C for 180 min. At different times of the reaction, 5 µL of sample were added to 250 µL buffer containing 50 mM Tris-HCl pH 7.5, 50 mM KCl, 20 mM MgCl2, 10 mM DTT, 1 mM NADP^+, 2.5 mM G6P (Sigma-Aldrich). NADPH formation was measured recording the absorbance increase at 340 nm in a Synergy HTX plate reader (BioTek, Winooski, VT, USA) in transparent 96-well plates with flat bottom (Sarstedt, Newton, NC, USA) for 5 min. Reactivation percentages were calculated considering the slope of NADPH formation for native G6PDH as 100% activity. […] IC50 values were estimated with a sigmoidal dose-response ligand-binding equation.

A further series addresses T2, Hsc70 + DnaJB1 + Apg2 (Homo sapiens, UniProt P11142+P34932).
T2 construct: His6-SUMO (N, cleaved yes); made in house; host or cells: E. coli BL21 Rosetta
The series is described as follows: Reactivation of G6PDH aggregates by the ternary chaperone mixture. Type of series: biochemical. As to the method:
as §3

A further series has as its system A2058 cells. Kind of series: Cell viability assay (XTT or Presto Blue), A2058. Type of series: cell-based, human. The conditions noted are these: for Effect on cell viability (toxicity), A2058: increasing concentrations, different incubation times.
Description: as §1, §2

For another series, the system named is fibroblasts (MRC-5). The series is described as follows: Cell viability assay (XTT or Presto Blue), fibroblasts. The series is classed as cell-based, human. The settings on record: 20 µM, up to 12 h.
Description: as §1, §2

Series [2] concerns non-transformed cell lines. Also noted: method as in PMID 19027770, PMID 17981006, PMID 18171263. The settings on record: cited from earlier work.
Setting [3] is: 2 µM Hsc70, 0.5 µM DnaJB1, 0.4 µM Apg2, 0.4 µM G6PDH aggregates, means ± SD of three experiments, read-out: IC50 G6PDH Reactivation Hsc70 + DnaJB1 + Apg2.

As usually defined, the IC50 is the concentration at which inhibition is half-maximal.

Structures are written as SMILES. Where two headings read alike, the source gives them in different places.

T1 sequence (P11142 whole entry): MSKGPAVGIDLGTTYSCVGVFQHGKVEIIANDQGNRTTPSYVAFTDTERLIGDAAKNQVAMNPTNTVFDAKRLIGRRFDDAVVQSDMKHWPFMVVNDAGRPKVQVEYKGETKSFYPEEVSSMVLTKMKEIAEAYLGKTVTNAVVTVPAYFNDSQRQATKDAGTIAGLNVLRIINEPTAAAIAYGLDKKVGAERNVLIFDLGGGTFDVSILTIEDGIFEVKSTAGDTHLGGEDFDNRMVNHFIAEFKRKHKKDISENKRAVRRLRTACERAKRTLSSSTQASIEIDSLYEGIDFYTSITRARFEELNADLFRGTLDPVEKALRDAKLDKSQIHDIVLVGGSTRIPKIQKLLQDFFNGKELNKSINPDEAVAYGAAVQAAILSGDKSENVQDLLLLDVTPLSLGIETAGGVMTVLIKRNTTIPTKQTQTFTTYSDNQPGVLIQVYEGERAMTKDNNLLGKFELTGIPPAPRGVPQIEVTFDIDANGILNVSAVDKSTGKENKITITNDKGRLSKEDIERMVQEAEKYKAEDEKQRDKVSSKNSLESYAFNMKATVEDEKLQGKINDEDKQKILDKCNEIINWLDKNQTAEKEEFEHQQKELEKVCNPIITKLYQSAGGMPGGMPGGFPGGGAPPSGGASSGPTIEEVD
T2 sequence (P11142 whole entry): as above
T2 sequence (P34932 whole entry): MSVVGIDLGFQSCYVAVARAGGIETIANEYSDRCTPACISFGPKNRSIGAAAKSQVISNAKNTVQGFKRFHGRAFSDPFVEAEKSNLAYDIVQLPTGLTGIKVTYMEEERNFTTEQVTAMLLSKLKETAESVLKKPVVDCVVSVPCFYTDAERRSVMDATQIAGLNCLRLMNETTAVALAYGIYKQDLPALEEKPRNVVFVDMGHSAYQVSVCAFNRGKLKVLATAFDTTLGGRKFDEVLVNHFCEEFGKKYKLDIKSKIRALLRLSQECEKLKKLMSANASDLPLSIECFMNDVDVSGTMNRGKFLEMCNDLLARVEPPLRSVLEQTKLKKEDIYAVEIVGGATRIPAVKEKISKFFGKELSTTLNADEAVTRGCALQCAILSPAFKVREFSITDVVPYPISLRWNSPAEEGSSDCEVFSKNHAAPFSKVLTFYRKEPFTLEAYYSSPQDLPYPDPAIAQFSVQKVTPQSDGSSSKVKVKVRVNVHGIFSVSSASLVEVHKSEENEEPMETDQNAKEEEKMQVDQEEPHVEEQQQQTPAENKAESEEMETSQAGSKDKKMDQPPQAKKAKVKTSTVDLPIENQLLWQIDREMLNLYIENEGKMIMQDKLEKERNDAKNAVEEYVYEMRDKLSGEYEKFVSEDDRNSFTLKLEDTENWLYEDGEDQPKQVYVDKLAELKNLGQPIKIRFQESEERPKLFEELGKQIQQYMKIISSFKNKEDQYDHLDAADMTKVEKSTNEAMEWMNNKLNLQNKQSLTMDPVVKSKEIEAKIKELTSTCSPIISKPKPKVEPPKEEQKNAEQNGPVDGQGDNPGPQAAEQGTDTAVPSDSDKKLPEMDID

`Cl.O[C@@H](c1cc(C(F)(F)F)nc2c(C(F)(F)F)cccc12)[C@H]1CCCCN1` [Compound 5, (S)-[2,8-bis(trifluoromethyl)quinolin-4-yl]-[(2R)-piperidin-2-yl]methanol hydrochloride]: the “Effect on cell viability (toxicity), MeWo” value (shortened to “Effect … MeWo”) in the series on MeWo cells is on record as “Cell viability decreased”. In addition, the Toxicity in melanocytes result in series [1] was “no toxicity was observed”. In addition, the results for the IC50 on Hsc70 + DnaJB1 and at Hsc70 + DnaJB1 + Apg2 (setting [3]) were 107 ± 7.5 µM and 97.3 ± 21.1 µM, respectively. Further, in the series with A2058 cells, the “Effect on cell viability (toxicity), A2058” value (from here on “Effect … A2058”) is listed as “Cell viability decreased”. For the same molecule, the “Fold lower toxic concentration in melanoma cell lines than IC50 for the isolated chaperone system” value in the series on A2058 cells (melanoma cell lines (A2058 and MeWo) versus IC50 of the isolated chaperone system) is “around 7 fold”. The Toxicity in fibroblasts result in the series with fibroblasts (MRC-5) was “no toxicity was observed”.

With `CC=C(C)C(=O)OC1C(OC(C)=O)C2(CO)C(O)CC3(C)C(=CCC4C5(C)CCC(OC6OC(C(=O)O)C(OC7OC(CO)C(O)C(O)C7O)C(O)C6OC6OC(CO)C(O)C(O)C6O)C(C)(CO)C5CCC43C)C2CC1(C)C` (centres unmarked) [Compound 4], the IC50 is 37.3 ± 1.8 µM at Hsc70 + DnaJB1 and 47 ± 5.6 µM on Hsc70 + DnaJB1 + Apg2 (setting [3]).

`CCc1oc2ccccc2c1C(=O)c1cc(Br)c(O)c(Br)c1` [Compound 3, (3,5-dibromo-4-hydroxyphenyl)-(2-ethyl-1-benzofuran-3-yl)methanone]: the “Effect … MeWo” value in the series on MeWo cells was “no toxicity was observed”. The IC50 at Hsc70 + DnaJB1 came to 10.1 ± 0.4 µM; at Hsc70 + DnaJB1 + Apg2, 17.6 ± 0.1 µM. Moreover, the “Effect … A2058” value in the series on A2058 cells is on record as “no toxicity was observed”.

Regarding `[H]/N=C(\N/C(=N/[H])NCCCCCCNC(=N)NC(=N)Nc1ccc(Cl)cc1)Nc1ccc(Cl)cc1` [Compound 1, (1E)-2-[6-[[amino-[(E)-[amino-(4-chloroanilino)methylidene]amino]methylidene]amino]hexyl]-1-[amino-(4-chloroanilino)methylidene]guanidine], the “Effect … MeWo” value in the series on MeWo cells was “Cell viability decreased”. Moreover, the IC50 was determined as 11.9 ± 0.2 µM on Hsc70 + DnaJB1 and 14.5 ± 1.8 µM at Hsc70 + DnaJB1 + Apg2 (setting [3]). For the same molecule, the “Effect … A2058” value with A2058 cells is listed as “Cell viability decreased”. Further, the “Toxicity in non-transformed cell lines” value in series [2] was “toxicity in several non-transformed cell lines”.

Consider `O=C(O)Cc1cc(I)c(Oc2ccc(O)c(I)c2)c(I)c1` [Compound 6, 2-[4-(4-hydroxy-3-iodophenoxy)-3,5-diiodophenyl]acetic acid], for which the “Effect … MeWo” value in the series on MeWo cells is “no toxicity was observed”. Besides, the “Effect … A2058” value in the series with A2058 cells is reported as “no toxicity was observed”.
